# In US6613322B2, “Method for treating a subject suffering from conditions associated with an extracellular zinc sphingomyelinase” (The Trustees of Columbia University in the City of New York, priority 1997, dated 2003):
# Tested on: LDL
# Conditions: 10-fold molar excess of choline-phosphate, no SMase
# Procedure: Next it was determined which of the three consequences of SMase enzymatic activity, namely, generation of choline-phosphate, generation of ceramide, and depletion of SM, is responsible for LDL aggregation. […] Incubating LDL with a 10-fold molar excess of choline-phosphate was performed.
smiles,measurement,value
C[N+](C)(C)CCOP(=O)(O)O [choline-phosphate],turbidity of LDL,failed to increase the turbidity of LDL
